According to US20180354909A1, “SUBSTITUTED BENZIMIDAZOLIUM, PYRIDO-IMIDAZOLIUM, OR PYRAZINO-IMIDAZOLIUM COMPOUNDS AS CHEMOTHERAPEUTICS” (The Board of Regents of the University of Texas System, priority 2015, published 2018):
“Also recorded” adds a separate entry of the source.

Experiments:
[1] = In vitro plasma half-life; type: in vitro ADME; details: mouse, plasma, murine plasma, read-out: Plasma T1/2 (converted)
Procedure: 12M11 (2 μM final concentration) was incubated with murine plasma and saline for 0-1440 minutes. Reactions were quenched with 200 μl (1:2) of methanol containing 0.1% formic acid and 200 ng/ml IS (IS final conc.=100 ng/mL). Samples were vortexed for 15 seconds, incubated at RT for 10 minutes and spun for 5 minutes at 13.2K rpm. Supernatant ([…]) was then transferred to an eppendorf tube and spun in a table top, chilled centrifuge for 5 minutes at 13.2K rpm. Supernatant (800 μL) was transferred to an HPLC vial (w/out insert). Analyzed by Qtrap 3200 mass spectrometer. These methods were used data obtained in the FIGS. 22C and 22F.

Mut6 = assay: Glucose and lactate in culture media of Mut6 cells; type: cell-based, mouse; details: Mut6, 7 hrs incubation
Procedure: Mut6 cells were incubated with 12M11 for 7 hrs, and the collected culture media was measured for glucose, lactate, glutamine, and glutamate (Birsoy, et al., 2014; Lunt and Vander Heiden, 2011). […] Oxygen consumption and extracellular acidification using a XF24 Seahorse analyzer was used to measure cellular oxygen consumption rate (OCR) and extracellular acidification rate (ECAR) (FIG. 8).

[2] = tested on: oxidative phosphorylation complexes I-V; assay: Avidin agarose pull-down of Biotin-12M11 interacting proteins from Mut6 cells; type: binding, mouse; details: Mut6 cell lysates
Procedure: To understand the unique selectivity of 12M11 to affect the viability of Mut6 cells, the precise molecular target(s) of 12M11 were determined. A 12M11 biotinylated variant (see Cpd 1.11, FIG. 16C) was generated to attempt to directly pull down interacting proteins. […] Mut6 cells were treated with 12M11, Biot-12M11, or pre-incubated with 12M11 followed by addition of Biot-12M11 (see FIG. 17 for a general schematic protocol). As indicated in the silver stain of a denaturing gel (FIG. 18A) with the pull down reactions, several bands that appear in the Biot-12M11 tract (Lane 2) are substantially diluted or absent in Lane 3 where the cells were pre-incubated with excess 12M11. […] The results from Mass-Spec analysis were as follows: 1) Lysate from Mut6 cells incubated with 12M11 alone yielded no proteins; 2) Lysate from Mut6 cells incubated with Biot-12M11 yielded 8 proteins (Atp5a1, Acaca, Hspa9, Hsp60, Decr1, Sdha, Pcca, and Atp5o; FIG. 19B). Two of the proteins, Acac and Pcca, were discounted as known to nonspecifically bind Biotin (Tong, 2005; Diacovich, et al., 2004; Kalousek, et al., 1980). The remaining 6 proteins all localize to the mitochondrion and 3 of the pulled down proteins are components of the oxidative phosphorylation complexes. […]

MEF = assay: Cytotox testing (CellTiter-Glo) in MEF; type: cell-based, mouse
Procedure: Mut6 tumor cells were cultured in DMEM/F12 media supplemented by EGF (10 ng/mL), basic FGF (10 ng/mL), heparin (4 ug/mL), glucose (total 21 mM), NaHCO3 (113 μg/mL), Hepes (119 μg/mL), glutamine (2 mM), sodium pyruvate (1 mM), N2 supplement (ThermoFisher Gibco 17502-048, 100×, at 100-fold dilution), B27 supplement (ThermoFisher Gibco 12587-010, 50×, at 100-fold dilution), and penicillin/streptomycin (ThermoFisher, final 1%). Cells were maintained in Ultra-low attachment plate (Corning) as sphere-forming cells. For ATP assays and protein/RNA isolation, cells were plated into 96-well plates or 6-well plated that were coated with poly-lysine (Sigma P6407, 10 μg/mL in PBS, 4 hr at 37° C.) and laminin (ThermoFisher 23017015, ˜5 mg/L in PBS, overnight at 37° C.). MEFs and Astrocytes were cultured in DMEM supplemented with 10% FBS and 1% Penicillin/Streptomycin.
2,000 cells were plated into each well of 96-well plates. About 3 hours later, cells were treated by 12M11, at 800-fold dilution (4 mM stock was diluted into 5 μM final concentration). Cells were further incubated for 4 days. CellTiter-Glo assay (Promega) was performed according to manufacturer's instructions, by adding 20 μL of reagent into each well. Luminescence signal was detected by the PolarStar plate reader (BMG Labtech). […] EC505 were calculated by GraphPad Prism6 software.

[3] = In vivo plasma PK, 10 mg/kg IP; design: species or system mice; details: female, CD-1, mouse
Procedure: 22E. 21 female CD-1 mice (6 wks) were administered 10 mg/kg L129 IP, 0.2 ml/mouse formulated as 5% DMSO, 10% Cremophor EL, and 85% D5W. Plasma was processed from whole blood by centrifugation of the ACD treated blood for 10′ at 10,000 rpm in a standard centrifuge. Brains were weighed and snap frozen in liquid nitrogen. Brain homogenates were prepared by mincing the brain tissue and homogenizing in a 3-fold volume of PBS (total volume of homogenate in mL=4× weight in g.) 100 microliters plasma or brain homogenate was mixed with 200 microliters of acetonitrile containing formic acid and an internal standard (final concentration of formic acid=0.1%, IS=25 ng/mL). The samples were vortexed 15 sec, incubated at room temp for 10′ and spun 2×13,200 rpm in a standard microcentrifuge. The supernatant was then analyzed by LC/MS/MS. Buffer A: Water+0.1% formic acid; Buffer B: MeOH+0.1% formic acid; flow rate 1.5 ml/min; column Agilent C18 XDB column, 5 micron packing 50×4.6 mm size; 0-1.5 min 3% B, 1.5-2.5 min gradient to 100% B; 2.5-3.5 min 100% B, 3.5-3.6 min gradient to 3% B; 3.6-4.5 min 3% B; IS N-benzylbenzamide (transition 212.1 to 91.1); Compound transition 474.2 to 336.3. These methods were used data obtained in the FIGS. 22B and 22E.

- half-life at 2 μM [1]: 4 min
- Cmax [3]: 2.7 ng/mL
SMILES: CCc1n(CC(=O)O[C@@H]2C[C@H](C)CC[C@H]2C(C)C)c2ccccc2[n+]1C.[Cl-] [Compound 12M11]
- lactate secretion (Mut6): increased
- uptake of glucose (Mut6): increased
- association with OxyPhos complex proteins (pull-down) [2]: excludes
- activity against MEF (MEF): no to minimal effect; also recorded: no activity
